Results: patent US20260216247A1, “Composition For Treatment Or Prevention Of Hair Loss Comprising Stem Cell-Derived Exosomes And Preparation Method Therefor” (BREXOGEN INC., priority 2023, published 2026)

Columns and labels:
[1] = tested on: testosterone-treated C57BL/6 mice; test: Ratio of anagen-phase hair follicles in skin tissue (H&E), testosterone-treated animal model; type: in vivo; conditions: Anagen/(Catagen+Telogen); dorsal skin after 27-day experiment; 1 mg/kg Finasteride subcutaneous
Method: To determine whether the composition of the present disclosure inhibits the reduction of hair follicles, the ratio of anagen-phase hair follicles was measured in a testosterone-treated animal model following administration of BxC-HAe isolated in Example 2. Specifically, dorsal skin tissues from each mouse subjected to the 27-day experiment described in Example 8 were collected, embedded in paraffin blocks, and sectioned at a thickness of 5 μm. The tissue sections were then stained using H&E. Subsequently, for each group, randomly selected hair follicles from the dorsal skin of five mice were classified by morphology into anagen (growth phase), catagen (regression phase), and telogen (resting phase). The ratio of anagen hair follicles was calculated using the formula: Anagen/(Catagen+Telogen). The results were presented in FIGS. 20 and 21, and Table 18.

β-catenin = β-catenin immunofluorescence in skin tissue, testosterone-treated animal model; type: in vivo, C57BL/6 mice; conditions: dorsal skin after 27-day experiment; 1 mg/kg Finasteride; testosterone-untreated = 1
Method: To determine whether the composition of the present disclosure modulates the expression of hair loss and regrowth-related factors, a testosterone-treated animal model was administered BxC-HAe isolated in Example 2, and the fluorescence intensity of cells stained with antibodies against androgen receptor (AR) and β-catenin was measured and compared.
Specifically, dorsal skin tissues from each mouse subjected to the 27-day experiment (described in Example 8) were harvested, embedded in paraffin blocks, and sectioned at a thickness of 5 μm, followed by immunofluorescent staining.
The primary antibodies used were rabbit anti-β-catenin (Cell Signaling #9562) and mouse anti-AR (Santa Cruz, sc-7305). The fluorophore-conjugated secondary antibodies were goat anti-rabbit IgG conjugated with Alexa Fluor 488 (Abcam, ab150077) and goat anti-mouse IgG conjugated with Cyanine5 (Invitrogen, a10524).
After completion of the antibody reactions, DAPI staining was performed, and fluorescence patterns were analyzed using a Nikon ECLIPSE Ti2 fluorescence microscope and NIS-Elements software. The results are shown in FIGS. 22-24, and in Tables 19 and 20.

[2] = tested on: testosterone-treated C57BL/6 mice; test: Hair regrowth in testosterone-treated animal model; type: in vivo; conditions: Day 27; topical testosterone daily; 1 mg/kg Finasteride subcutaneous every other day; testosterone-untreated = 100
Method: To evaluate whether the composition of the present disclosure promotes hair regrowth, BxC-HAe isolated in Example 2 was administered to a testosterone-treated animal model, and changes in body weight and photographic observations were compared.
Specifically, six-week-old C57BL/6 mice were acclimated for two weeks under conditions of 25° C. and 50% humidity with ad libitum access to food and tap water. Eight-week-old mice were then used for the experiment.
On Day 0, initial depilation was performed using a hair clipper, followed by the application of Niklin (II-dong Pharmaceutical) for 90 seconds for secondary depilation. The area was then rinsed three times with lukewarm water.
In the testosterone-treated group, starting on Day 1, 100 μL of 0.5% (w/w) testosterone dissolved in 50% ethanol was topically applied daily to the depilated dorsal region of each mouse.
Starting from the point when hair regrowth began in the testosterone-untreated group, body weight was measured twice weekly, and photographs were taken once weekly.
Specifically, hair regrowth area and depilated area were measured using ImageJ software, and the ratio of hair regrowth area to depilated area was calculated and analyzed statistically.
The experiment was conducted until Day 27, the point at which hair regrowth was completed in the testosterone-untreated group. […]

## CC(C)(C)NC(=O)[C@H]1CC[C@H]2[C@@H]3CC[C@H]4NC(=O)C=C[C@]4(C)[C@H]3CC[C@]12C [Finasteride]
[1]
  Percentage of hair follicles in growth phase (%): 1.29%
β-catenin
  Fluorescence intensity (β-catenin): 1.05
[2]
  Hair growth area (%): 68.1%
